Here are results for 2 compounds from paper PMC3420979 (Bioorganic & medicinal chemistry letters, 2012).

For one experiment, the target named is T1, CpCDPK1 (Cryptosporidium parvum, UniProt A3FQ16).
T1 sequence (A3FQ16 1-538): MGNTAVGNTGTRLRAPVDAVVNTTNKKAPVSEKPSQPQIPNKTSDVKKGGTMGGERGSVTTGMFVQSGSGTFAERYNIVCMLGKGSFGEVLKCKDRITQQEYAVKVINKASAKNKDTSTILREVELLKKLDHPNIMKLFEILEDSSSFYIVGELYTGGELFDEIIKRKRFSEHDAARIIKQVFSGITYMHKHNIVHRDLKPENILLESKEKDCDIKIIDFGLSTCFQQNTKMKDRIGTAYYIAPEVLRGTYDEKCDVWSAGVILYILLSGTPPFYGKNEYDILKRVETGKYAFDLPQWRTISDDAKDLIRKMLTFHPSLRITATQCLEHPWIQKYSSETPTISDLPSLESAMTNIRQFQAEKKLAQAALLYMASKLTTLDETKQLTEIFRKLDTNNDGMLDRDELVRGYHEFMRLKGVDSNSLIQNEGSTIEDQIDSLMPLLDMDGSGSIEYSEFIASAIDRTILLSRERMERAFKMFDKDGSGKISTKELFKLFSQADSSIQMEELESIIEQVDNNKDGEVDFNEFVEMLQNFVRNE
The experiment in a line: Enzyme inhibition assay, CpCDPK1. The experiment is classed as biochemical. As to conditions: IC50 against CpCDPK1 (nM), stated for both parasite CDPK1s.

The target of the next experiment is Abl (Homo sapiens, UniProt P00519). The experiment in a line: Human kinase inhibition, Abl. Particulars: parasite CDPK1s versus human Src or Abl. The experiment is classed as biochemical.

A value given as a limit tells only on which side of the number the result lay.

Chain of Abl (P00519 whole entry): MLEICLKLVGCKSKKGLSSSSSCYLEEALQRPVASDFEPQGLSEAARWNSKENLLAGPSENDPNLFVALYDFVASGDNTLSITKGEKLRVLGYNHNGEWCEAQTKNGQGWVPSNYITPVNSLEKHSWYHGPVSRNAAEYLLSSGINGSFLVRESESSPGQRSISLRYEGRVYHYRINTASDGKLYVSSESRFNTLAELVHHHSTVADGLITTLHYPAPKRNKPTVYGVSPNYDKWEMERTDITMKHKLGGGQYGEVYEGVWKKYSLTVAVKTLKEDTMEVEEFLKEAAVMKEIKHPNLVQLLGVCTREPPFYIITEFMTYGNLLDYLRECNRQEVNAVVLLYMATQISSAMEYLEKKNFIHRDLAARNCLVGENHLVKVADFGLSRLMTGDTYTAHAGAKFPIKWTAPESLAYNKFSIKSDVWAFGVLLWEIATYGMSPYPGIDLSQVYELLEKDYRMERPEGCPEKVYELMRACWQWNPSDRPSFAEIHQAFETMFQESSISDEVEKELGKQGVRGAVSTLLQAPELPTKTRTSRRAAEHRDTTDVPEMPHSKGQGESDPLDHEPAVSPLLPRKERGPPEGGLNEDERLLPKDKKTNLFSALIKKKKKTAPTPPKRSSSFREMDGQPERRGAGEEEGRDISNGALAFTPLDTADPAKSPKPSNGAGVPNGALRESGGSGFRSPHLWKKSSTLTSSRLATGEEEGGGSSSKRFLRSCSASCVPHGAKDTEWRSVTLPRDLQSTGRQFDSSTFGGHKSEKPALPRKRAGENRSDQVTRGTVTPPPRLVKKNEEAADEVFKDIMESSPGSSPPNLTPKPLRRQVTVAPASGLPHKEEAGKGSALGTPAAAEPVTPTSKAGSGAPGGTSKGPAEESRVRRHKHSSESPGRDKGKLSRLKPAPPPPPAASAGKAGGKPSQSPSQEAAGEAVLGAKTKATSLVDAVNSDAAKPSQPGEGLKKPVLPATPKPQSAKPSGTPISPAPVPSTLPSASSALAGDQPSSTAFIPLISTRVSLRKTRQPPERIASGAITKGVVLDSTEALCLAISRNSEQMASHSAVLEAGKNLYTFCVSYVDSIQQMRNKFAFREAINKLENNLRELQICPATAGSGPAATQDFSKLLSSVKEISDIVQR

For `Nc1nc2ccc(C(=O)c3ccccc3)cc2n1CCC1CCNCC1` [7c], the 50% inhibitory concentration (IC50) on CpCDPK1 was less than 50 nM. For the same compound, the “selectivity index over human Src or Abl” value at Abl is more than 200 fold.

Turning to `CN1CCN(CCn2c(N)nc3ccc(C(=O)c4ccccc4)cc32)CC1` [7p], the IC50 against CpCDPK1 is less than 50 nM. Moreover, the “selectivity index over human Src or Abl” value at Abl was more than 200 fold.
